Reference: ChEMBL document CHEMBL4732171 (J Med Chem, 2021)
Calls of active or inactive are those of the source. The rule behind the calls is not given here.

How the values were obtained:
Carbonic anhydrase 3 = Carbonic anhydrase 3 (Homo sapiens, UniProt P07451)
[1] = molecular target: Carbonic anhydrase 2 (Homo sapiens) (UniProt P00918); experiment: Binding affinity to human full length CAH2 expressed in Escherichia coli BL21 (DE3) assessed as binding concentration causing thermal stabilization by Sypro-Orange dye based DSF assay
[2] = molecular target: Carbonic anhydrase 9 (Homo sapiens) (UniProt Q16790); details: T47D, dose 50.0 nM
[3] = molecular target: Carbonic anhydrase 9 (Homo sapiens) (UniProt Q16790); details: UFH-001, dose 50.0 nM

Chain of Carbonic anhydrase 3 (P07451 whole entry): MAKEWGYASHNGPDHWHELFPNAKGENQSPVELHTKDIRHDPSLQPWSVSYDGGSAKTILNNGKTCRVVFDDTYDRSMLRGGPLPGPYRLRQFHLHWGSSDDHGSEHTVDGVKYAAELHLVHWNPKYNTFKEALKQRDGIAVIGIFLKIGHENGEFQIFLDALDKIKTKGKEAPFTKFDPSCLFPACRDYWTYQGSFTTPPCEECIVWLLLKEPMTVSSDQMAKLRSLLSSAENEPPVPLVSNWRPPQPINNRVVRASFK

| inhibition [2] | inhibition [3] | Structure (SMILES) | Ki (Carbonic anhydrase 3) [µM] | Activity [1] [mM] |
| --- | --- | --- | --- | --- |
| – | – | NS(=O)(=O)c1ccc(N2CCN(c3ccc(F)cc3F)C2=O)cc1 | > 10 | 0.1 |
| Active | Active | CCOc1ccc2nc(S(N)(=O)=O)sc2c1 | – | – |
